Experimental data from the supplement of paper PMC6045584.
± gives the standard deviation of the averaged measurements.

How the values were obtained:
MLN-4924 = compound: NS(=O)(=O)OC[C@@H]1C[C@@H](n2ccc3c(N[C@H]4CCc5ccccc54)ncnc32)C[C@@H]1O [MLN-4924]; experiment: surviving fraction relative to DMSO-only wells; higher = less growth inhibition; settings: exposure time: 5 days
How it was run: (§1)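 Luminescence normalised to the median of DMSO-only wells defines surviving fraction, with viability read by CellTiter-Glo. Signal was recorded after 10 minutes at room temperature, once log-phase tumour cell lines seeded at 250–500 cells per well in 384-well plates had spent 24 hours settling and then five days under continuous exposure to inhibitors at 0.5, 1, 5, 10, 50, 100, 500 and 1000 nM.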

FORETINIB = compound: COc1cc2c(Oc3ccc(NC(=O)C4(C(=O)Nc5ccc(F)cc5)CC4)cc3F)ccnc2cc1OCCCN1CCOCC1 [FORETINIB]; experiment: as above; settings: exposure time: 5 days
How it was run: as §1

| Test System | surviving fraction (MLN-4924; 0.5 nM) | surviving fraction (MLN-4924; 1 nM) | surviving fraction (MLN-4924; 5 nM) | surviving fraction (MLN-4924; 10 nM) | surviving fraction (MLN-4924; 50 nM) | surviving fraction (MLN-4924; 100 nM) | surviving fraction (MLN-4924; 500 nM) | surviving fraction (MLN-4924; 1000 nM) | surviving fraction (FORETINIB; 0.5 nM) | surviving fraction (FORETINIB; 1 nM) | surviving fraction (FORETINIB; 5 nM) | surviving fraction (FORETINIB; 10 nM) | surviving fraction (FORETINIB; 50 nM) | surviving fraction (FORETINIB; 100 nM) | surviving fraction (FORETINIB; 500 nM) | surviving fraction (FORETINIB; 1000 nM) |
| --- | --- | --- | --- | --- | --- | --- | --- | --- | --- | --- | --- | --- | --- | --- | --- | --- |
| SUM149.B1*.S BREAST | 1.13 ± 0.076 | 1.09 ± 0.063 | 1.09 ± 0.021 | 1.08 ± 0.031 | 1.002 ± 0.0051 | 0.675 ± 0.057 | 0.107 ± 0.0071 | 0.0892 ± 0.0075 | 1.13 ± 0.068 | 1.19 ± 0.078 | 1.12 ± 0.022 | 1.11 ± 0.021 | 1.11 ± 0.059 | 1.09 ± 0.054 | 0.855 ± 0.033 | 0.515 ± 0.067 |
| JURKAT HAEMATOPOIETIC AND LYMPHOID TISSUE | 1.07 ± 0.016 | 1.02 ± 0.032 | 1.01 ± 0.025 | 0.931 ± 0.025 | 0.371 ± 0.012 | 0.154 ± 0.0059 | 0.0333 ± 0.00058 | 0.0313 ± 0.00058 | 1 ± 0.034 | 0.979 ± 0.036 | 1.02 ± 0.031 | 0.971 ± 0.023 | 0.923 ± 0.019 | 0.976 ± 0.039 | 0.61 ± 0.021 | 0.601 ± 0.03 |
| YAMATO SYNOVIAL | 1.33 ± 0.091 | 1.25 ± 0.019 | 1.33 ± 0.085 | 1.31 ± 0.21 | 1.21 ± 0.11 | 0.805 ± 0.058 | 0.637 ± 0.041 | 0.492 ± 0.045 | 0.998 ± 0.072 | 1.16 ± 0.098 | 1 ± 0.12 | 1.02 ± 0.078 | 0.585 ± 0.025 | 0.369 ± 0.035 | 0.295 ± 0.017 | 0.272 ± 0.018 |
| MG63 BONE | 1.03 ± 0.057 | 1.02 ± 0.046 | 1.07 ± 0.042 | 1.13 ± 0.054 | 0.4 ± 0.058 | 0.031 ± 0.0046 | 0.0287 ± 0.005 | 0.0287 ± 0.0023 | 1.05 ± 0.012 | 1.07 ± 0.048 | 1.09 ± 0.043 | 1.11 ± 0.05 | 0.901 ± 0.037 | 0.817 ± 0.026 | 0.567 ± 0.015 | 0.322 ± 0.02 |
| COLO320DM LARGE INTESTINE | 1.1 ± 0.026 | 1.21 ± 0.045 | 1.14 ± 0.12 | 1.15 ± 0.1 | 1.06 ± 0.043 | 0.996 ± 0.03 | 0.803 ± 0.11 | 0.693 ± 0.03 | 1.09 ± 0.087 | 1.13 ± 0.066 | 1.07 ± 0.026 | 1.12 ± 0.076 | 1.05 ± 0.045 | 1.08 ± 0.11 | 0.517 ± 0.023 | 0.429 ± 0.05 |
| CADOES1 SOFT TISSUE | 0.993 ± 0.094 | 0.97 ± 0.047 | 0.913 ± 0.052 | 0.787 ± 0.057 | 0.879 ± 0.057 | 0.812 ± 0.082 | 0.0993 ± 0.014 | 0.053 ± 0.007 | 0.986 ± 0.23 | 0.887 ± 0.17 | 0.988 ± 0.25 | 0.876 ± 0.043 | 0.947 ± 0.02 | 0.795 ± 0.1 | 0.109 ± 0.011 | 0.088 ± 0.0062 |
| SG27 HEADNECK | 1.07 ± 0.041 | 1.1 ± 0.12 | 1.11 ± 0.055 | 1.16 ± 0.13 | 0.991 ± 0.17 | 0.823 ± 0.076 | 0.618 ± 0.098 | 0.322 ± 0.055 | 0.986 ± 0.14 | 1.12 ± 0.063 | 1.07 ± 0.11 | 1.11 ± 0.14 | 0.962 ± 0.12 | 1.02 ± 0.075 | 0.901 ± 0.11 | 0.829 ± 0.078 |
| MHM BONE | 0.973 ± 0.011 | 0.995 ± 0.024 | 1.04 ± 0.035 | 1.09 ± 0.038 | 1.37 ± 0.02 | 1.36 ± 0.015 | 0.39 ± 0.042 | 0.286 ± 0.015 | 1.04 ± 0.015 | 1.01 ± 0.012 | 1.05 ± 0.015 | 1.08 ± 0.026 | 1.03 ± 0.017 | 0.973 ± 0.0092 | 0.859 ± 0.026 | 0.8 ± 0.016 |
| SCC36 HEADNECK | 1.06 ± 0.18 | 0.955 ± 0.11 | 1.13 ± 0.061 | 1.14 ± 0.09 | 0.544 ± 0.12 | 0.259 ± 0.029 | 0.0483 ± 0.0085 | 0.047 ± 0.002 | 1.06 ± 0.11 | 1.11 ± 0.13 | 1.17 ± 0.02 | 1.13 ± 0.047 | 1.115 ± 0.0078 | 1.08 ± 0.061 | 0.742 ± 0.084 | 0.41 ± 0.035 |
| MDAMB453 BREAST | 1.1 ± 0.038 | 1.08 ± 0.056 | 1.07 ± 0.07 | 1.1 ± 0.066 | 0.589 ± 0.019 | 0.493 ± 0.034 | 0.363 ± 0.045 | 0.304 ± 0.017 | 1.1 ± 0.067 | 1.09 ± 0.062 | 1.12 ± 0.058 | 1.13 ± 0.087 | 1.12 ± 0.025 | 1.08 ± 0.04 | 0.952 ± 0.041 | 0.763 ± 0.035 |
| HCC1806 BREAST | 0.949 ± 0.094 | 1.02 ± 0.089 | 0.907 ± 0.074 | 0.395 ± 0.02 | 0.0957 ± 0.0076 | 0.0527 ± 0.0076 | 0.031 | 0.029 ± 0.0017 | 1.13 ± 0.071 | 0.942 ± 0.035 | 1.21 ± 0.031 | 1.12 ± 0.038 | 1.16 ± 0.11 | 1.12 ± 0.056 | 0.468 ± 0.014 | 0.452 ± 0.033 |
| HOSMNG BONE | 0.883 ± 0.092 | 0.897 ± 0.032 | 0.951 ± 0.024 | 0.917 ± 0.05 | 1.04 ± 0.14 | 1.08 ± 0.053 | 0.503 ± 0.18 | 0.097 ± 0.016 | 0.915 ± 0.11 | 0.904 ± 0.074 | 0.895 ± 0.066 | 0.855 ± 0.036 | 0.55 ± 0.039 | 0.381 ± 0.014 | 0.128 ± 0.0089 | 0.065 ± 0.0044 |
| SG32 HEADNECK | 1.17 ± 0.11 | 1.05 ± 0.14 | 1.36 ± 0.08 | 1.28 ± 0.16 | 1.04 ± 0.044 | 0.797 ± 0.051 | 0.277 ± 0.023 | 0.186 ± 0.018 | 1.15 ± 0.13 | 1.24 ± 0.36 | 1.27 ± 0.19 | 1.22 ± 0.041 | 1.03 ± 0.1 | 1.17 ± 0.26 | 0.374 ± 0.011 | 0.264 ± 0.0095 |
| MFM223 BREAST | 1.43 ± 0.45 | 1.47 ± 0.56 | 1.33 ± 0.39 | 1.16 ± 0.56 | 0.586 ± 0.066 | 0.42 ± 0.032 | 0.181 ± 0.022 | 0.152 ± 0.062 | 1.17 ± 0.043 | 1.09 ± 0.041 | 1.18 ± 0.062 | 1.22 ± 0.034 | 1.133 ± 0.011 | 0.94 ± 0.023 | 0.417 ± 0.17 | 0.271 ± 0.13 |
| MDAMB134 BREAST | 0.904 ± 0.21 | 1.036 ± 0.0099 | 0.934 ± 0.12 | 0.731 ± 0.1 | 0.562 ± 0.14 | 0.393 ± 0.03 | 0.267 ± 0.0035 | 0.281 ± 0.005 | 0.888 ± 0.12 | 1.41 ± 0.042 | 0.916 ± 0.06 | 1.37 ± 0.026 | 0.86 ± 0.16 | 1.17 ± 0.32 | 0.939 ± 0.14 | 0.886 ± 0.033 |
| NCIH441 LUNG | 1.08 ± 0.077 | 1.15 ± 0.099 | 1.11 ± 0.087 | 1.12 ± 0.03 | 1.01 ± 0.051 | 0.846 ± 0.11 | 0.431 ± 0.033 | 0.414 ± 0.022 | 1.11 ± 0.021 | 1.09 ± 0.063 | 1.1 ± 0.038 | 1 ± 0.079 | 0.983 ± 0.026 | 0.932 ± 0.065 | 0.807 ± 0.04 | 0.655 ± 0.066 |
